Some test systems named below: MDA-MB-435; SR leukemia; CAKI-1 renal; OVCAR-3 ovarian; SN12C renal; 786-0 renal; A549 NSCLC; HOP-92 NSCLC; SF-268 CNS; PC-3 prostate.
Test in all cases: DTP human tumour cell line panel, 48 h

SMILES strings stand for the structures. “And” between values parts separate entries of the source, which are not always exact repeats. Equal entries are not always repeated.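 Where inhibition never reached the appropriate level, the endpoint shown equals the highest concentration tested. Otherwise, values were interpolated linearly from a five-concentration, 48-hour dose response in 96-well plates. The concentration for 50% growth inhibition is given as GI50. TGI denotes the concentration required for complete inhibition of growth.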

Turning to `O=C1CN2CCC1C/C2=C\c1ccnc2c(Cl)cccc12` (stereo not given), the GI50 (commonly the concentration at which growth is held to half of that of the control) with MDA-MB-435 is 75.6 µM; with SR leukemia, 36.5 µM; in the assay with CAKI-1 renal, 21 µM; in the assay with OVCAR-3 ovarian, > 100 µM; with SN12C renal, > 100 µM; in the assay with 786-0 renal, > 100 µM. The GI50 with A549 NSCLC was > 100 µM; in the assay on HOP-92 NSCLC it was 37 µM; with SF-268 CNS it was > 100 µM; with PC-3 prostate it was 89 µM. Moreover, the TGI in the assay with MDA-MB-435, in the assay with SR leukemia, with CAKI-1 renal, in the assay with OVCAR-3 ovarian, with SN12C renal and in the assay on 786-0 renal was > 100 µM throughout. The TGI with A549 NSCLC, with HOP-92 NSCLC, in the assay with SF-268 CNS and in the assay on PC-3 prostate was > 100 µM throughout.

In the case of `Cc1cc(Nc2ncc(Cl)c(Nc3ccccc3S(=O)(=O)C(C)C)n2)c(OC(C)C)cc1C1CCNCC1`, the GI50 with MDA-MB-435 is 0.944 µM; in the assay with SR leukemia, 0.0444 µM; in the assay on CAKI-1 renal, 1.87 µM; with OVCAR-3 ovarian it was 1.61 µM and 1.37 µM; in the assay on SN12C renal, 1.76 µM; in the assay with 786-0 renal, 1.56 µM. Also, the GI50 in the assay with A549 NSCLC was 1.34 µM; in the assay on HOP-92 NSCLC, 0.346 µM; with SF-268 CNS it was 1.61 µM; in the assay with PC-3 prostate, 1.42 µM and 0.793 µM. Moreover, the concentration for total growth inhibition (TGI) – broadly, the concentration giving total growth inhibition – in the assay on MDA-MB-435 is 2.16 µM; with SR leukemia, 1.58 µM; in the assay with CAKI-1 renal it was 5.29 µM; with OVCAR-3 ovarian, 3.01 µM and 2.66 µM; in the assay on SN12C renal it was 3.29 µM; in the assay with 786-0 renal it was 3.01 µM. Further, the total growth inhibition concentration (TGI) with A549 NSCLC is 2.69 µM; with HOP-92 NSCLC, 1.55 µM; in the assay with SF-268 CNS, 3.38 µM; with PC-3 prostate, 2.92 µM and 2.07 µM.

With `C/C=C/C/C=C/CCC(=O)C1OC1C(N)=O` (stereo not given), the total growth inhibition concentration (TGI) with MDA-MB-435 is 28.3 µM; with SR leukemia, 50.5 µM; in the assay on CAKI-1 renal, 29.8 µM; in the assay with OVCAR-3 ovarian it was 32.8 µM; with SN12C renal, 39.8 µM; in the assay on 786-0 renal, 25.8 µM. The TGI was 56 µM in the assay on A549 NSCLC, 29.4 µM with HOP-92 NSCLC, 26.9 µM in the assay with SF-268 CNS and 28.7 µM with PC-3 prostate.

Take `CCCN1C(=O)/C(=C/c2ccc(O)cc2)SC1=Nc1ccccc1`: the GI50 in the assay on MDA-MB-435 was 21.6 µM; in the assay on SR leukemia, 14 µM; in the assay on CAKI-1 renal it was 21.6 µM; in the assay on OVCAR-3 ovarian it was 17.8 µM; with SN12C renal it was 18.4 µM; in the assay with 786-0 renal it was 20.5 µM. The GI50 was 23.9 µM in the assay on A549 NSCLC, 20.3 µM in the assay on HOP-92 NSCLC, 17.1 µM in the assay on SF-268 CNS and 28.9 µM in the assay on PC-3 prostate. The concentration for total growth inhibition (TGI) in the assay with MDA-MB-435 is 41.5 µM; in the assay on SR leukemia it was > 100 µM; with CAKI-1 renal, 38.8 µM; with OVCAR-3 ovarian, 33.8 µM; in the assay with SN12C renal it was 35.5 µM; in the assay with 786-0 renal, 36.9 µM. The total growth inhibition concentration (TGI) amounted to 58.2 µM in the assay with A549 NSCLC, 46.5 µM with HOP-92 NSCLC, 32.4 µM in the assay on SF-268 CNS and 59.8 µM with PC-3 prostate.

In the case of `O=C(c1cccs1)c1c(C(F)(F)F)n([O-])c2cc(C(F)(F)F)ccc2[n+]1=O`, the GI50 with MDA-MB-435 is 0.315 µM; in the assay with SR leukemia it was 0.0176 µM; in the assay on CAKI-1 renal, 0.22 µM; in the assay on OVCAR-3 ovarian, 0.333 µM; in the assay on SN12C renal, 0.2 µM; in the assay with 786-0 renal, 0.171 µM. Moreover, the GI50 is 0.242 µM in the assay with A549 NSCLC, 0.172 µM with HOP-92 NSCLC, 0.163 µM in the assay on SF-268 CNS and 0.136 µM with PC-3 prostate. For the same molecule, the total growth inhibition concentration (TGI) in the assay with MDA-MB-435 came to 0.877 µM; with SR leukemia it was 0.0833 µM; in the assay with CAKI-1 renal, 0.628 µM; in the assay with OVCAR-3 ovarian it was 0.704 µM; in the assay on SN12C renal, 0.408 µM; with 786-0 renal, 0.319 µM. Also, the total growth inhibition concentration (TGI) was 0.69 µM in the assay with A549 NSCLC, 0.342 µM in the assay with HOP-92 NSCLC, 0.334 µM in the assay on SF-268 CNS and 0.281 µM in the assay with PC-3 prostate.

On to `N#C/C(=C\c1ccc(Cl)cc1)n1nnc2cc(F)c(F)cc21`, for which the GI50 in the assay with MDA-MB-435 was 1.76 µM; in the assay with SR leukemia, 1.33 µM; in the assay with CAKI-1 renal, 1.7 µM; in the assay on OVCAR-3 ovarian, 1.71 µM; in the assay with SN12C renal, 1.89 µM; in the assay with 786-0 renal, 1.69 µM. For the same molecule, the GI50 in the assay on A549 NSCLC is 2.7 µM; in the assay on HOP-92 NSCLC it was 1.07 µM; with SF-268 CNS it was 1.98 µM; in the assay with PC-3 prostate, 1.61 µM. Besides, the TGI in the assay on MDA-MB-435 was 4.42 µM; with SR leukemia, > 100 µM; with CAKI-1 renal, 3.2 µM; with OVCAR-3 ovarian, 3.22 µM; with SN12C renal, 4.02 µM; with 786-0 renal, 3.28 µM. The TGI with A549 NSCLC was 21.5 µM; in the assay on HOP-92 NSCLC, 2.56 µM; in the assay with SF-268 CNS, 4.45 µM; in the assay with PC-3 prostate, 3.53 µM.

With `CCOC(=O)c1ccc(C(O)CC(=O)OC(C)(C)C)[nH]1` (stereo not given), the GI50 in the assay with MDA-MB-435 is 24.1 µM; in the assay with SR leukemia it was 22.4 µM; in the assay on CAKI-1 renal, 21.6 µM; with OVCAR-3 ovarian it was 28.5 µM; in the assay on SN12C renal, 17.4 µM; in the assay with 786-0 renal, 23.9 µM. The GI50 is 32.1 µM with A549 NSCLC, 17.9 µM with HOP-92 NSCLC, 28.7 µM in the assay on SF-268 CNS and 21.3 µM in the assay on PC-3 prostate. Besides, the concentration for total growth inhibition (TGI) is 62.2 µM in the assay on MDA-MB-435; > 100 µM in the assay with SR leukemia; 87.2 µM in the assay on CAKI-1 renal; 68.2 µM with OVCAR-3 ovarian; 62.4 µM in the assay on SN12C renal; 83.3 µM in the assay on 786-0 renal. For the same molecule, the TGI in the assay on A549 NSCLC is > 100 µM; with HOP-92 NSCLC, 55.8 µM; with SF-268 CNS it was > 100 µM; in the assay with PC-3 prostate, 62 µM.

Turning to `O=C1OC2(c3ccccc31)c1cc(I)c(O)c(I)c1Oc1c2cc(I)c(O)c1I`, the total growth inhibition concentration (TGI) is > 100 µM in the assay on MDA-MB-435; > 100 µM in the assay with SR leukemia; 85 µM in the assay with CAKI-1 renal; > 100 µM in the assay with OVCAR-3 ovarian; > 100 µM with SN12C renal; > 100 µM in the assay on 786-0 renal. For the same molecule, the TGI with A549 NSCLC, with HOP-92 NSCLC, with SF-268 CNS and in the assay on PC-3 prostate was > 100 µM each time.

Source of the values: PubChem BioAssay (NCI).
